{
  "source": "the CheMixHub ionic liquid set",
  "experiment": "xn = mol fraction of the nth substance listed",
  "note": "± gives the uncertainty stated by the source.",
  "data": [
    {"smiles": "CCCC[n+]1ccn(C)c1.F[P-](F)(F)(F)(F)F", "note": "+ OCCOCCOCCOCCO", "values": [
      {"measurement": "viscosity", "setting": "298.15 K, 101 kPa, x2 = 0", "value": "254 ± 15", "unit": "mPa·s"}
    ]},
    {"smiles": "CCCC[n+]1ccn(C)c1.O=S(=O)([N-]S(=O)(=O)C(F)(F)F)C(F)(F)F", "note": "+ OCCOCCOCCOCCO", "values": [
      {"measurement": "viscosity", "setting": "298.15 K, 101 kPa, x2 = 0", "value": "45.3 ± 1.1", "unit": "mPa·s"}
    ]},
    {"smiles": "CCCC[n+]1ccn(C)c1.F[P-](F)(F)(F)(F)F", "note": "+ OC[C@H]1O[C@H](O[C@H]2[C@H](O)[C@@H](O)C(O)O[C@@H]2CO)[C@H](O)[C@@H](O)[C@@H]1O + O", "values": [
      {"measurement": "viscosity", "setting": "293.15 K, 100 kPa, x1 = 0.0001838, x2 = 0", "value": "1.011 ± 0.041", "unit": "mPa·s"},
      {"measurement": "viscosity", "setting": "293.15 K, 100 kPa, x1 = 0.0005385, x2 = 0", "value": "1.025 ± 0.042", "unit": "mPa·s"},
      {"measurement": "viscosity", "setting": "293.15 K, 100 kPa, x1 = 0.0008966, x2 = 0", "value": "1.038 ± 0.043", "unit": "mPa·s"},
      {"measurement": "viscosity", "setting": "293.15 K, 100 kPa, x1 = 0.001262, x2 = 0", "value": "1.041 ± 0.043", "unit": "mPa·s"},
      {"measurement": "viscosity", "setting": "298.15 K, 100 kPa, x1 = 0.0001838, x2 = 0", "value": "0.905 ± 0.037", "unit": "mPa·s"},
      {"measurement": "viscosity", "setting": "298.15 K, 100 kPa, x1 = 0.0005385, x2 = 0", "value": "0.916 ± 0.038", "unit": "mPa·s"},
      {"measurement": "viscosity", "setting": "298.15 K, 100 kPa, x1 = 0.0008966, x2 = 0", "value": "0.922 ± 0.038", "unit": "mPa·s"},
      {"measurement": "viscosity", "setting": "298.15 K, 100 kPa, x1 = 0.001262, x2 = 0", "value": "0.932 ± 0.038", "unit": "mPa·s"},
      {"measurement": "viscosity", "setting": "303.15 K, 100 kPa, x1 = 0.0001838, x2 = 0", "value": "0.821 ± 0.034", "unit": "mPa·s"},
      {"measurement": "viscosity", "setting": "303.15 K, 100 kPa, x1 = 0.0005385, x2 = 0", "value": "0.826 ± 0.034", "unit": "mPa·s"},
      {"measurement": "viscosity", "setting": "303.15 K, 100 kPa, x1 = 0.0008966, x2 = 0", "value": "0.83 ± 0.034", "unit": "mPa·s"},
      {"measurement": "viscosity", "setting": "303.15 K, 100 kPa, x1 = 0.001262, x2 = 0", "value": "0.843 ± 0.035", "unit": "mPa·s"},
      {"measurement": "viscosity", "setting": "308.15 K, 100 kPa, x1 = 0.0001838, x2 = 0", "value": "0.742 ± 0.03", "unit": "mPa·s"},
      {"measurement": "viscosity", "setting": "308.15 K, 100 kPa, x1 = 0.0005385, x2 = 0", "value": "0.744 ± 0.031", "unit": "mPa·s"},
      {"measurement": "viscosity", "setting": "308.15 K, 100 kPa, x1 = 0.0008966, x2 = 0", "value": "0.75 ± 0.031", "unit": "mPa·s"},
      {"measurement": "viscosity", "setting": "308.15 K, 100 kPa, x1 = 0.001262, x2 = 0", "value": "0.761 ± 0.031", "unit": "mPa·s"},
      {"measurement": "viscosity", "setting": "313.15 K, 100 kPa, x1 = 0.0001838, x2 = 0", "value": "0.661 ± 0.027", "unit": "mPa·s"},
      {"measurement": "viscosity", "setting": "313.15 K, 100 kPa, x1 = 0.0005385, x2 = 0", "value": "0.674 ± 0.028", "unit": "mPa·s"},
      {"measurement": "viscosity", "setting": "313.15 K, 100 kPa, x1 = 0.0008966, x2 = 0", "value": "0.677 ± 0.028", "unit": "mPa·s"},
      {"measurement": "viscosity", "setting": "313.15 K, 100 kPa, x1 = 0.001262, x2 = 0", "value": "0.683 ± 0.028", "unit": "mPa·s"}
    ]},
    {"smiles": "Cn1cc[nH+]c1.[Cl-]", "note": "+ [Cl][Al]([Cl])[Cl]", "values": [
      {"measurement": "electrical conductivity", "setting": "303.15 K, 101 kPa, x2 = 0.667", "value": "0.709 ± 0.007", "unit": "S/m"},
      {"measurement": "viscosity", "setting": "303.15 K, 101 kPa, x2 = 0.667", "value": "32.79 ± 0.48", "unit": "mPa·s"},
      {"measurement": "electrical conductivity", "setting": "313.15 K, 101 kPa, x2 = 0.643", "value": "0.782 ± 0.008", "unit": "S/m"},
      {"measurement": "viscosity", "setting": "313.15 K, 101 kPa, x2 = 0.643", "value": "31.87 ± 0.44", "unit": "mPa·s"}
    ]},
    {"smiles": "CCCC[n+]1ccn(C)c1.F[P-](F)(F)(F)(F)F", "note": "+ c1ccccc1", "values": [
      {"measurement": "viscosity", "setting": "313.2 K, 100 kPa, x2 = 0.6008", "value": "7.7 ± 0.4", "unit": "mPa·s"}
    ]},
    {"smiles": "CCCC[n+]1ccn(C)c1.F[P-](F)(F)(F)(F)F", "note": "+ c1ccncc1", "values": [
      {"measurement": "electrical conductivity", "setting": "298.15 K, 101 kPa, x2 = 0.4915", "value": "0.819 ± 0.098", "unit": "S/m"},
      {"measurement": "viscosity", "setting": "298.15 K, 101 kPa, x2 = 0.4915", "value": "21.8 ± 2.2", "unit": "mPa·s"}
    ]},
    {"smiles": "CCCC[n+]1ccn(C)c1.O=S(=O)([N-]S(=O)(=O)C(F)(F)F)C(F)(F)F", "note": "+ c1ccsc1", "values": [
      {"measurement": "viscosity", "setting": "328.15 K, 100 kPa, x2 = 0", "value": "17.98 ± 0.96", "unit": "mPa·s"}
    ]}
  ]
}
